# Data as given in PubChem BioAssay (NCI).
#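 All cell lines were grown in 96-well plates and treated with compound for 48 hours. TGI: concentration producing complete growth inhibition.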
# Tests used:
# Assay in all cases: inhibition of tumour cell growth, NCI panel, 48 h
# A549 NSCLC = tested on: A549 NSCLC
# MOLT-4 leukemia = tested on: MOLT-4 leukemia
# SK-MEL-5 melanoma = tested on: SK-MEL-5 melanoma
# A498 renal = tested on: A498 renal
# NCI/ADR-RES ovarian = tested on: NCI/ADR-RES ovarian
# HCT-15 colon = tested on: HCT-15 colon
# HCC-2998 colon = tested on: HCC-2998 colon
# NCI-H23 lung = tested on: NCI-H23 lung
# SW-620 colon = tested on: SW-620 colon
# SF-268 CNS = tested on: SF-268 CNS
# K-562 leukemia = tested on: K-562 leukemia
# SF-295 CNS = tested on: SF-295 CNS
# SR leukemia = tested on: SR leukemia
# LOX IMVI melanoma = tested on: LOX IMVI melanoma
# KM12 colon = tested on: KM12 colon
# MALME-3M melanoma = tested on: MALME-3M melanoma
# HS 578T breast = tested on: HS 578T breast
# HL-60(TB) leukemia = tested on: HL-60(TB) leukemia
# MDA-MB-435 = tested on: MDA-MB-435
# SF-539 CNS = tested on: SF-539 CNS
# IGROV1 ovarian = tested on: IGROV1 ovarian
# HCT-116 colon = tested on: HCT-116 colon
# UO-31 renal = tested on: UO-31 renal
# MDA-N = tested on: MDA-N
# 786-0 renal = tested on: 786-0 renal
# SNB-19 CNS = tested on: SNB-19 CNS
# RPMI-8226 leukemia = tested on: RPMI-8226 leukemia
# UACC-257 melanoma = tested on: UACC-257 melanoma
# HOP-62 NSCLC = tested on: HOP-62 NSCLC
# RXF 393 renal = tested on: RXF 393 renal
# HT29 colon = tested on: HT29 colon
# HOP-92 NSCLC = tested on: HOP-92 NSCLC
# SK-MEL-2 melanoma = tested on: SK-MEL-2 melanoma
# OVCAR-5 ovarian = tested on: OVCAR-5 ovarian
# NCI-H522 lung = tested on: NCI-H522 lung
# NCI-H460 lung = tested on: NCI-H460 lung
# MDA-MB-231 breast = tested on: MDA-MB-231 breast
# CAKI-1 renal = tested on: CAKI-1 renal
# SNB-75 CNS = tested on: SNB-75 CNS
# OVCAR-8 ovarian = tested on: OVCAR-8 ovarian
# DU-145 prostate = tested on: DU-145 prostate
# CCRF-CEM leukemia = tested on: CCRF-CEM leukemia
# T-47D breast = tested on: T-47D breast
# MCF7 breast = tested on: MCF7 breast
# OVCAR-4 ovarian = tested on: OVCAR-4 ovarian
# TK-10 renal = tested on: TK-10 renal
# U251 CNS = tested on: U251 CNS
# SN12C renal = tested on: SN12C renal
# SK-MEL-28 melanoma = tested on: SK-MEL-28 melanoma
# COLO 205 colon = tested on: COLO 205 colon
# M14 melanoma = tested on: M14 melanoma
# OVCAR-3 ovarian = tested on: OVCAR-3 ovarian
# UACC-62 melanoma = tested on: UACC-62 melanoma
# BT-549 breast = tested on: BT-549 breast
# NCI-H226 lung = tested on: NCI-H226 lung
# SK-OV-3 ovarian = tested on: SK-OV-3 ovarian
# PC-3 prostate = tested on: PC-3 prostate
# EKVX NSCLC = tested on: EKVX NSCLC
# ACHN renal = tested on: ACHN renal
smiles,measurement,setting,value
CN1C[C@@H]2CCCN2P1Oc1cccc2cccnc12 (stereo partly drawn),TGI,A549 NSCLC,> 100 µM
same,TGI,MOLT-4 leukemia,58.1 µM
same,TGI,SK-MEL-5 melanoma,> 100 µM
same,TGI,A498 renal,> 100 µM
same,TGI,NCI/ADR-RES ovarian,62.3 µM
same,TGI,HCT-15 colon,> 100 µM
same,TGI,HCC-2998 colon,> 100 µM
same,TGI,NCI-H23 lung,57.7 µM
same,TGI,SW-620 colon,> 100 µM
same,TGI,SF-268 CNS,69.7 µM
same,TGI,K-562 leukemia,> 100 µM
same,TGI,SF-295 CNS,> 100 µM
same,TGI,SR leukemia,> 100 µM
same,TGI,LOX IMVI melanoma,> 100 µM
same,TGI,KM12 colon,> 100 µM
same,TGI,MALME-3M melanoma,> 100 µM
same,TGI,HS 578T breast,68.1 µM
same,TGI,HL-60(TB) leukemia,72.9 µM
same,TGI,MDA-MB-435,> 100 µM
same,TGI,SF-539 CNS,> 100 µM
same,TGI,IGROV1 ovarian,> 100 µM
same,TGI,HCT-116 colon,89 µM
same,TGI,UO-31 renal,> 100000 nM
same,TGI,MDA-N,> 100 µM
same,TGI,786-0 renal,> 100 µM
same,TGI,SNB-19 CNS,> 100 µM
same,TGI,RPMI-8226 leukemia,66.2 µM
same,TGI,UACC-257 melanoma,> 100 µM
same,TGI,HOP-62 NSCLC,> 100 µM
same,TGI,RXF 393 renal,> 100 µM
same,TGI,HT29 colon,> 100 µM
same,TGI,HOP-92 NSCLC,> 100 µM
same,TGI,SK-MEL-2 melanoma,> 100 µM
same,TGI,OVCAR-5 ovarian,> 100 µM
same,TGI,NCI-H522 lung,> 100 µM
same,TGI,NCI-H460 lung,> 100 µM
same,TGI,MDA-MB-231 breast,> 100 µM
same,TGI,CAKI-1 renal,> 100 µM
same,TGI,SNB-75 CNS,> 100 µM
same,TGI,OVCAR-8 ovarian,> 100 µM
same,TGI,DU-145 prostate,> 100 µM
same,TGI,CCRF-CEM leukemia,19.3 µM
same,TGI,T-47D breast,> 100 µM
same,TGI,MCF7 breast,65.4 µM
same,TGI,OVCAR-4 ovarian,> 100 µM
same,TGI,TK-10 renal,> 100 µM
same,TGI,U251 CNS,> 100 µM
same,TGI,SN12C renal,> 100 µM
same,TGI,SK-MEL-28 melanoma,> 100 µM
same,TGI,COLO 205 colon,> 100 µM
same,TGI,M14 melanoma,> 100 µM
same,TGI,OVCAR-3 ovarian,90.2 µM
same,TGI,UACC-62 melanoma,> 100 µM
same,TGI,BT-549 breast,> 100 µM
same,TGI,NCI-H226 lung,> 100 µM
same,TGI,SK-OV-3 ovarian,> 100 µM
same,TGI,PC-3 prostate,> 100 µM
same,TGI,EKVX NSCLC,90.6 µM
same,TGI,ACHN renal,> 100 µM
Clc1nc2c(-c3cccs3)ncnc2n1Cc1ccccc1,TGI,A549 NSCLC,> 100 µM
same,TGI,MOLT-4 leukemia,> 100 µM
same,TGI,SK-MEL-5 melanoma,> 100 µM
same,TGI,A498 renal,55.6 µM
same,TGI,NCI/ADR-RES ovarian,> 100 µM
same,TGI,HCT-15 colon,> 100 µM
same,TGI,HCC-2998 colon,9.84 µM
same,TGI,NCI-H23 lung,> 100 µM
same,TGI,SW-620 colon,> 70.5 µM
same,TGI,SF-268 CNS,> 100 µM
same,TGI,K-562 leukemia,> 100 µM
same,TGI,SF-295 CNS,> 100 µM
same,TGI,SR leukemia,> 100 µM
same,TGI,LOX IMVI melanoma,> 100 µM
same,TGI,KM12 colon,37.5 µM
same,TGI,MALME-3M melanoma,> 100 µM
same,TGI,HS 578T breast,87.8 µM
same,TGI,HL-60(TB) leukemia,> 70.3 µM
same,TGI,MDA-MB-435,> 100 µM
same,TGI,SF-539 CNS,> 100 µM
same,TGI,IGROV1 ovarian,> 100 µM
same,TGI,HCT-116 colon,> 100 µM
same,TGI,UO-31 renal,1090 nM
same,TGI,MDA-N,> 100 µM
same,TGI,786-0 renal,59.5 µM
same,TGI,SNB-19 CNS,> 78.3 µM
same,TGI,RPMI-8226 leukemia,70.6 µM
same,TGI,UACC-257 melanoma,61.9 µM
same,TGI,HOP-62 NSCLC,> 100 µM
same,TGI,RXF 393 renal,51.2 µM
same,TGI,HT29 colon,> 100 µM
same,TGI,HOP-92 NSCLC,62 µM
same,TGI,SK-MEL-2 melanoma,> 100 µM
same,TGI,OVCAR-5 ovarian,> 100 µM
same,TGI,NCI-H522 lung,> 100 µM
same,TGI,NCI-H460 lung,> 83.2 µM
same,TGI,MDA-MB-231 breast,> 81.5 µM
same,TGI,CAKI-1 renal,> 21 µM
same,TGI,SNB-75 CNS,58.7 µM
same,TGI,OVCAR-8 ovarian,> 100 µM
same,TGI,DU-145 prostate,6.18 µM
same,TGI,CCRF-CEM leukemia,> 100 µM
same,TGI,T-47D breast,> 91.5 µM
same,TGI,MCF7 breast,> 100 µM
same,TGI,OVCAR-4 ovarian,> 100 µM
same,TGI,TK-10 renal,61.5 µM
same,TGI,U251 CNS,> 100 µM
same,TGI,SN12C renal,> 100 µM
same,TGI,SK-MEL-28 melanoma,> 100 µM
same,TGI,COLO 205 colon,> 100 µM
same,TGI,M14 melanoma,> 100 µM
same,TGI,OVCAR-3 ovarian,49.8 µM
same,TGI,UACC-62 melanoma,> 100 µM
same,TGI,BT-549 breast,> 81.8 µM
same,TGI,NCI-H226 lung,> 100 µM
same,TGI,SK-OV-3 ovarian,> 95.4 µM
same,TGI,PC-3 prostate,> 76.4 µM
same,TGI,EKVX NSCLC,55.4 µM
same,TGI,ACHN renal,4.36 µM
